Results from paper PMC8151276, “An Integrated Approach toward NanoBRET Tracers for Analysis of GPCR Ligand Engagement” (Molecules, 2021).

What was measured:
Format in all cases: binding
[1] = biological target: T1, MTNR1B (Homo sapiens, UniProt P49286); assay: NanoBRET screen HiBiT-MTNR1B in HEK293
T1 construct: purchased Promega (in-house HiBiT-GPCR construct library, NanoBRET)
T1 sequence (P49286 1-362): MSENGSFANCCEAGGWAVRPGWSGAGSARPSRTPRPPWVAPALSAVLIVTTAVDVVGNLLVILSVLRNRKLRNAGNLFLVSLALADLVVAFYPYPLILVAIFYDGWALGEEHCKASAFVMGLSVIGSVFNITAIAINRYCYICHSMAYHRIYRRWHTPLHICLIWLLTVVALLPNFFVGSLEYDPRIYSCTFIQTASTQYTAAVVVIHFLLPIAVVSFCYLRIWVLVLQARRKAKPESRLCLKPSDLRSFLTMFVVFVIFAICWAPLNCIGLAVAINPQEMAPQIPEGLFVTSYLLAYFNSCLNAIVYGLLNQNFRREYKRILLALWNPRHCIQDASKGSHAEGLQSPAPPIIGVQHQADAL
Procedure: (§1) Each tracer candidate was screened across the entire library of HiBiT-GPCR constructs using NanoBRET as the detection modality. As depicted in Figure 4A, the specificity of interactions was evaluated through decrease in BRET due to competitive displacement of a bound tracer by excess parental compound. Each tracer was analyzed for binding to each HiBiT-GPCR fusion in the absence and in the presence of competing parental compound. Briefly, HEK293 cells were transfected with HiBiT-GPCR constructs diluted into promoterless DNA to reduce expression and maximize translocation to the cell surface. Each tracer candidate was then screened at concentrations of 1 μM and 0.1 μM across cells expressing these fusions. Cells were treated for 1.5 h with tracer either alone or in the presence of 20 μM competing parental compound (i.e., control). BRET was measured upon addition of purified LgBiT and subsequent complementation with HiBiT genetically fused to a GPCR. The specificity of interactions was assessed through a decrease in BRET signal due to competitive displacement of the bound tracer. To further gauge the robustness of these interactions, the fold response over the control (i.e., BRETtracer/BRETcontrol) was calculated. We chose a 1.5-fold response, which translates to ≥7-fold signal over noise as the minimal threshold required to score an interaction as positive. […]. Below we highlight the screening results obtained for our exemplary fluorescent tracers based on Clozapine, Amitriptyline and AZD1283.
(§2) HiBiT-GPCR DNA constructs were diluted in 10 mM Tris pH 8 to a final concentration of 0.01 μg/μL, arrayed in 96-well plates and stored at −20 °C. For transfection, HEK293 cells were suspended in Opti-MEM (without phenol red) supplemented with 2% fetal bovine serum (Seradigm) and 100 units/mL penicillin–streptomycin (Gibco) at a final concentration of 220,000 cells/mL and dispensed into white 96-well plates at 90 μL/well. Subsequent transfections and screens were carried using an Agilent Bravo Automated Liquid Handling Platform. First, the 96-well HiBiT DNA arrays were diluted 25-fold in Opti-MEM (without serum or phenol red) to a final concentration of 0.0004 μg/μL and 20 μL of the diluted DNAs were transferred into new 96-well plates. Next, promoterless carrier DNA (1 μg/μL) was diluted 25-fold (0.04 μg/μL) and then dispensed into the diluted arrays at 20 μL/well. Following brief mixing, Viafect transfection reagent (Promega) diluted 16-fold into Opti-MEM was dispensed into the plates at 40 μL/well. After mixing by pipetting, plates were incubated for 10 min on the pipetting station deck. The DNA-transfection reagent complexes were then added to plates containing cells. To facilitate the screen, 10 μL of DNA-transfection reagent complexes were added in duplicates to the top 4 and bottom 4 rows, resulting in two identical 48-well arrays per plate. Plates with transfected cells were incubated for 18–20 h at 37 °C/5% CO2. A screen of each tracer across the entire library using two different concentrations requires duplicate plates of transfected cells. Depending on the number of tracers being screened, transfections can be scaled up using the same ratios. The next day, for each tracer, four 20× screening solutions in tracer dilution buffer (Promega) were prepared: two duplicates at final concentration of 20 μM and two duplicates at a final concentration of 2 μM. A competing unmodified compound was added to one of each duplicate at a final concentration of 400 μM. The four resulting solutions were diluted 4-fold in Opti-MEM without serum or phenol red to generate 5× solutions (5 µM and 0.5 µM tracer +/− 100 μM competing compound). To screen the library, a BioTek MultiFlo FX liquid dispenser was used to dispense 22.5 µL of tracer solution to the top 4 rows and 22.5 µL tracer + competing compound solution to the 4 bottom rows. Plates were briefly mixed on an orbital shaker and incubated for 1.5 h at room temperature. […]

[2] = biological target: T2, ADORA2B (Homo sapiens, UniProt P29275); assay: NanoBRET screen HiBiT-ADORA2B in HEK293
T2 construct: purchased Promega (in-house HiBiT-GPCR construct library, NanoBRET)
T2 sequence (P29275 1-332): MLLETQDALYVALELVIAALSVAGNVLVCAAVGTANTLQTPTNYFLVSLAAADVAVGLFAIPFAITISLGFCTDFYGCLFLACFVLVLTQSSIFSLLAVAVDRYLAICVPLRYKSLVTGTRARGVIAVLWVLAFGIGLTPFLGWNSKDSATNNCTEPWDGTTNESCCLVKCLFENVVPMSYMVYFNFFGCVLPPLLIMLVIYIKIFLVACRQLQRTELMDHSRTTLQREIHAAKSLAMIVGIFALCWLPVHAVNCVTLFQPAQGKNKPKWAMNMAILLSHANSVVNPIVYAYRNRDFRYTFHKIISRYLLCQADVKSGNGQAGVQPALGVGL
Procedure: as §1, §2

[3] = biological target: T3, CXCR4 (Homo sapiens, UniProt P61073); assay: NanoBRET screen HiBiT-CXCR4 in HEK293
T3 construct: purchased Promega (in-house HiBiT-GPCR construct library, NanoBRET)
Procedure: as §1, §2

[4] = tracer at 0.1μM, listed as amitriptyline-b-2-NB590

T3 sequence (P61073 whole entry): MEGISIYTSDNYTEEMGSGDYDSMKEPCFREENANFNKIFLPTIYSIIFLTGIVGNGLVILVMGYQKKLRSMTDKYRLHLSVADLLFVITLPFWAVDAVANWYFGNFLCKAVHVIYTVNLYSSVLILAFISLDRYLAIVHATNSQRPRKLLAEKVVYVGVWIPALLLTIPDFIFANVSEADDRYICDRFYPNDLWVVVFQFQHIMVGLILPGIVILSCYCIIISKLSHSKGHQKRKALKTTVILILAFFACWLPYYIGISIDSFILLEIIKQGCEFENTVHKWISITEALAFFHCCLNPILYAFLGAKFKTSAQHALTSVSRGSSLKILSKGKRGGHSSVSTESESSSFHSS

Row | Structure (SMILES) | NanoBRET Fold Response ([1]; MTNR1B, tracer 0.1μM) | NanoBRET Fold Response ([1]; MTNR1B, tracer 1μM) | NanoBRET Fold Response ([2]; ADORA2B, tracer 0.1μM) | NanoBRET Fold Response ([2]; ADORA2B, tracer 1μM) | NanoBRET Fold Response ([3]; CXCR4, tracer 0.1μM) | NanoBRET Fold Response ([3]; CXCR4, tracer 1μM) | further results
1 | O=C(CCc1ccc2n1[B-](F)(F)[N+]1=C(c3ccc[nH]3)C=CC1=C2)NCc1ccc(C(=O)NCCOCCC(=O)N[C@@H]2CC[C@@]3(O)[C@H]4Cc5ccc(O)c6c5[C@@]3(CCN4CC3CC3)[C@H]2O6)cc1 [Naltrexone-3-NB590] | 0.94 | 0.66 | 0.20 | 0.77 | 1.30 | 0.84 | –
2 | CCCn1c(=O)c2[nH]c(-c3ccc(OCC(=O)NCCNC(=O)CCOCCNC(=O)c4ccc(CNC(=O)CCc5ccc6n5[B-](F)(F)[N+]5=C(c7ccc[nH]7)C=CC5=C6)cc4)cc3)nc2n(CCC)c1=O [XAC-3-NB590] | 1.07 | 1.05 | 8.09 | 3.98 | 0.90 | 0.92 | –
3 | CC(C)N(CC[C@H](c1ccccc1)c1cc(CCNC(=O)c2ccc(CNC(=O)CCc3ccc4n3[B-](F)(F)[N+]3=C(c5ccc[nH]5)C=CC3=C4)cc2)ccc1O)C(C)C [Tolterodine-BZ-NB590] | 0.97 | 1.04 | 0.67 | 0.73 | 0.94 | 1.03 | –
4 | COc1ccc2[nH]c(-c3ccc(CNC(=O)CCOCCOCCOCCOCCNC(=O)CCc4ccc5n4[B-](F)(F)[N+]4=C(c6ccc[nH]6)C=CC4=C5)cc3)c(CCNC(C)=O)c2n1 [AzomelatoninICO9-2-NB590] | – | – | – | – | – | – | NanoBRET Fold Response ([1]; 0.1μM tracer): 2.05; NanoBRET Fold Response ([1]; 1μM tracer): 2.32; NanoBRET Fold Response ([2]; 0.1μM tracer): 0.82; NanoBRET Fold Response ([2]; 1μM tracer): 1.21; NanoBRET Fold Response ([3]; 0.1μM tracer): 1.00; NanoBRET Fold Response ([3]; 1μM tracer): 0.81
5 | CN1CCN(C2=Nc3cc(Cl)ccc3N(CC(=O)NCCOCCOCCOCCOCCNC(=O)CCc3ccc4n3[B-](F)(F)[N+]3=C(c5ccc[nH]5)C=CC3=C4)c3ccccc32)CC1 [Clozapine-c-2-NB590] | – | – | – | – | – | – | NanoBRET Fold Response ([1]; MTNR1B, 0.1μM tracer): 0.98; NanoBRET Fold Response ([1]; MTNR1B, 1μM tracer): 1.02; NanoBRET Fold Response ([2]; ADORA2B, 0.1μM tracer): 1.07; NanoBRET Fold Response ([2]; ADORA2B, 1μM tracer): 0.91; NanoBRET Fold Response ([3]; CXCR4, 0.1μM tracer): 1.04; NanoBRET Fold Response ([3]; CXCR4, 1μM tracer): 0.97
6 | COc1ccccc1N1CCN(CCCCN2C(=O)c3ccc(CNC(=O)CCOCCNC(=O)c4ccc(CNC(=O)CCc5ccc6n5[B-](F)(F)[N+]5=C(c7ccc[nH]7)C=CC5=C6)cc4)cc3C2=O)CC1 [NAN-190-3-NB590] | 1.20 | 1.15 | 0.94 | 1.30 | 1.24 | 1.08 | –
7 | Cc1nc2n(c(=O)c1CCN1CCC(c3noc4cc(F)ccc34)CC1)CCCC2OC(=O)NCCOCCOCCOCCOCCNC(=O)CCc1ccc2n1[B-](F)(F)[N+]1=C(c3ccc[nH]3)C=CC1=C2 (stereo not drawn) [Risperidone-2-NB590] | 0.99 | 0.92 | 0.94 | 1.05 | 1.05 | 1.12 | –
8 | O=C(CCOCCOCCOCCOCCNC(=O)CCc1ccc2n1[B-](F)(F)[N+]1=C(c3ccc[nH]3)C=CC1=C2)NCCCN1CCN(C2=Nc3ccccc3Oc3ccc(Cl)cc32)CC1 [Loxapine-a-2-NB590] | 0.44 | 1.04 | 1.41 | 0.62 | 1.03 | 1.03 | –
9 | COc1ccccc1N1CCN(CCCCN2C(=O)c3ccc(CNC(=O)CCOCCOCCOCCOCCNC(=O)CCc4ccc5n4[B-](F)(F)[N+]4=C(c6ccc[nH]6)C=CC4=C5)cc3C2=O)CC1 [NAN-190-2-NB590] | – | 1.00 | 0.94 | 0.64 | 1.00 | 1.03 | –
10 | CC(C)N(CC[C@H](c1ccccc1)c1cc(CCNC(=O)CCOCCOCCOCCOCCNC(=O)CCc2ccc3n2[B-](F)(F)[N+]2=C(c4ccc[nH]4)C=CC2=C3)ccc1O)C(C)C [Tolterodine-2-NB590] | 0.95 | 0.79 | 0.81 | 0.97 | 0.88 | 1.02 | –
11 | N#CN=C(NCCCOc1cccc(CN2CCCCC2)c1)NCCNC(=O)CCOCCOCCOCCOCCNC(=O)CCc1ccc2n1[B-](F)(F)[N+]1=C(c3ccc[nH]3)C=CC1=C2 [Aminopotentidine-2-NB590] | 0.99 | 0.99 | 1.37 | 1.06 | 1.08 | 0.99 | –
12 | CCOC(=O)c1cc(C#N)c(N2CCC(C(=O)NS(=O)(=O)Cc3ccccc3/C=C/C(=O)NCCNC(=O)CCc3ccc4n3[B-](F)(F)[N+]3=C(c5ccc[nH]5)C=CC3=C4)CC2)nc1C [AZD1283-1-NB590] | – | – | – | – | – | – | NanoBRET Fold Response ([1]; MTNR1B, 0.1μM): 0.97; NanoBRET Fold Response ([1]; MTNR1B, 1μM): 0.53; NanoBRET Fold Response ([2]; ADORA2B, 0.1μM): 0.94; NanoBRET Fold Response ([2]; ADORA2B, 1μM): 0.93; NanoBRET Fold Response ([3]; CXCR4, 0.1μM): 0.86; NanoBRET Fold Response ([3]; CXCR4, 1μM): 1.17
13 | CN(C)CCC=C1c2ccccc2CCc2ccc(C(=O)NCCNC(=O)CCOCCOCCOCCOCCNC(=O)CCc3ccc4n3[B-](F)(F)[N+]3=C(c5ccc[nH]5)C=CC3=C4)cc21 [Amitriptyline-b-2-NB590] | 1.02 | 1.04 | – | – | – | – | NanoBRET Fold Response [2, 4]: 1.40; NanoBRET Fold Response [3, 4]: 1.12; NanoBRET Fold Response ([3]; tracer at 1μM): 0.70
14 | CN(C)CCC=C1c2ccccc2CCc2ccc(C(=O)NCCNC(=O)CCOCCOCCOCCOCCNC(=O)CCc3ccc4n3[B-](F)(F)[N+]3=C(c5ccc[nH]5)C=CC3=C4)cc21 [Amitriptyline-a-2-NB590] | – | – | – | – | – | – | NanoBRET Fold Response ([2]; tracer at 0.1μM): 1.10; NanoBRET Fold Response ([2]; tracer at 1μM): 0.93; NanoBRET Fold Response ([3]; tracer at 0.1μM): 0.89; NanoBRET Fold Response ([3]; tracer at 1μM): 1.04
15 | CN(CCC=C1c2ccccc2CCc2ccccc21)C(=O)CCOCCOCCOCCOCCNC(=O)CCc1ccc2n1[B-](F)(F)[N+]1=C(c3ccc[nH]3)C=CC1=C2 [Amitriptyline-e-2-NB590] | – | – | – | – | – | – | NanoBRET Fold Response ([3]; tracer at 1μM): 1.15
